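Here, GI50 denotes the concentration required for 50% inhibition of growth. TGI: total growth inhibition.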
Columns and labels:
Assay in all cases: DTP human tumour cell line panel, 384-well format
[1] = system: 786-0 renal
[2] = system: A498 renal
[3] = system: A549 NSCLC
[4] = system: ACHN renal
[5] = system: CAKI-1 renal
[6] = system: CCRF-CEM leukemia
[7] = system: EKVX NSCLC
[8] = system: HCC-2998 colon
[9] = system: HCT-116 colon
[10] = system: HCT-15 colon
[11] = system: HOP-62 NSCLC
[12] = system: HS 578T breast
[13] = system: HT29 colon
[14] = system: IGROV1 ovarian
[15] = system: K-562 leukemia
[16] = system: KM12 colon
[17] = system: M14 melanoma
[18] = system: MALME-3M melanoma
[19] = system: MCF7 breast
[20] = system: MDA-MB-231 breast
[21] = system: MDA-MB-435 melanoma
[22] = system: MDA-MB-468 breast
[23] = system: MOLT-4 leukemia
[24] = system: NCI-H226 lung
[25] = system: NCI-H23 lung
[26] = system: NCI-H460 NSCLC
[27] = system: NCI-H522 lung
[28] = system: NCI/ADR-RES ovarian
[29] = system: OVCAR-3 ovarian
[30] = system: OVCAR-4 ovarian
[31] = system: OVCAR-5 ovarian
[32] = system: OVCAR-8 ovarian
[33] = system: PC-3 prostate
[34] = system: RPMI-8226 leukemia
[35] = system: RXF 393 renal
[36] = system: SF-268 CNS
[37] = system: SF-295 CNS
[38] = system: SF-539 CNS
[39] = system: SK-MEL-2 melanoma
[40] = system: SK-MEL-28 melanoma
[41] = system: SK-MEL-5 melanoma
[42] = system: SK-OV-3 ovarian
[43] = system: SNB-19 CNS
[44] = system: SNB-75 CNS
[45] = system: SR leukemia
[46] = system: T-47D breast
[47] = system: U251 glioblastoma

**Q.** How did the GI50 [1] turn out when `C[C@H](NC(=O)CCC(F)(F)F)C(=O)N[C@@H]1C(=O)N(CCO)c2ncccc2-c2ccccc21` was run?
**A.** The GI50 was greater than 100 µM.

**Q.** And the TGI [1]?
**A.** Its TGI is greater than 100 µM.

**Q.** And the GI50 [2]?
**A.** Its GI50 is greater than 100 µM.

**Q.** What about the TGI [2] of the same molecule?
**A.** The TGI was greater than 100 µM.

**Q.** What about the GI50 [3] of the same molecule?
**A.** The GI50 was greater than 100 µM.

**Q.** And the TGI [3]?
**A.** Its TGI is greater than 100 µM.

**Q.** What about the GI50 [4] of the same molecule?
**A.** Its GI50 is greater than 100 µM.

**Q.** What about the TGI [4] of the same molecule?
**A.** Its TGI is greater than 100 µM.

**Q.** What about the GI50 [5] of the same molecule?
**A.** Its GI50 is greater than 100 µM.

**Q.** And the TGI [5]?
**A.** Its TGI is greater than 100 µM.

**Q.** And the GI50 [6]?
**A.** The GI50 was 22.9 µM.

**Q.** What about the TGI [6] of the same molecule?
**A.** The TGI was greater than 56.2 µM.

**Q.** And the GI50 [7]?
**A.** The GI50 was greater than 100 µM.

**Q.** And the TGI [7]?
**A.** Its TGI is greater than 100 µM.

**Q.** And the GI50 [8]?
**A.** Its GI50 is greater than 100 µM.

**Q.** What about the TGI [8] of the same molecule?
**A.** The TGI was greater than 100 µM.

**Q.** What about the GI50 [9] of the same molecule?
**A.** Its GI50 is greater than 100 µM.

**Q.** What about the TGI [9] of the same molecule?
**A.** The TGI was greater than 100 µM.

**Q.** What about the GI50 [10] of the same molecule?
**A.** Its GI50 is greater than 100 µM.

**Q.** What about the TGI [10] of the same molecule?
**A.** Its TGI is greater than 100 µM.

**Q.** What about the GI50 [11] of the same molecule?
**A.** The GI50 was greater than 100 µM.

**Q.** What about the TGI [11] of the same molecule?
**A.** Its TGI is greater than 100 µM.

**Q.** What about the GI50 [12] of the same molecule?
**A.** The GI50 was greater than 100 µM.

**Q.** And the TGI [12]?
**A.** The TGI was greater than 100 µM.

**Q.** And the GI50 [13]?
**A.** The GI50 was greater than 100 µM.

**Q.** What about the TGI [13] of the same molecule?
**A.** Its TGI is greater than 100 µM.

**Q.** And the GI50 [14]?
**A.** The GI50 was greater than 100 µM.

**Q.** What about the TGI [14] of the same molecule?
**A.** The TGI was greater than 100 µM.

**Q.** And the GI50 [15]?
**A.** Its GI50 is 41.6 µM.

**Q.** And the TGI [15]?
**A.** Its TGI is greater than 91.3 µM.

**Q.** And the GI50 [16]?
**A.** Its GI50 is greater than 100 µM.

**Q.** And the TGI [16]?
**A.** The TGI was greater than 100 µM.

**Q.** And the GI50 [17]?
**A.** The GI50 was greater than 100 µM.

**Q.** And the TGI [17]?
**A.** The TGI was greater than 100 µM.

**Q.** What about the GI50 [18] of the same molecule?
**A.** Its GI50 is greater than 100 µM.

**Q.** And the TGI [18]?
**A.** Its TGI is greater than 100 µM.

**Q.** And the GI50 [19]?
**A.** The GI50 was greater than 100 µM.

**Q.** And the TGI [19]?
**A.** Its TGI is greater than 100 µM.

**Q.** And the GI50 [20]?
**A.** Its GI50 is greater than 100 µM.

**Q.** What about the TGI [20] of the same molecule?
**A.** The TGI was greater than 100 µM.

**Q.** What about the GI50 [21] of the same molecule?
**A.** The GI50 was greater than 100 µM.

**Q.** And the TGI [21]?
**A.** The TGI was greater than 100 µM.

**Q.** What about the GI50 [22] of the same molecule?
**A.** Its GI50 is greater than 100 µM.

**Q.** And the TGI [22]?
**A.** The TGI was greater than 100 µM.

**Q.** And the GI50 [23]?
**A.** Its GI50 is 29.8 µM.

**Q.** And the TGI [23]?
**A.** Its TGI is greater than 100 µM.

**Q.** What about the GI50 [24] of the same molecule?
**A.** Its GI50 is greater than 100 µM.

**Q.** What about the TGI [24] of the same molecule?
**A.** The TGI was greater than 100 µM.

**Q.** What about the GI50 [25] of the same molecule?
**A.** Its GI50 is greater than 100 µM.

**Q.** What about the TGI [25] of the same molecule?
**A.** The TGI was greater than 100 µM.

**Q.** And the GI50 [26]?
**A.** Its GI50 is greater than 100 µM.

**Q.** What about the TGI [26] of the same molecule?
**A.** The TGI was greater than 100 µM.

**Q.** What about the GI50 [27] of the same molecule?
**A.** Its GI50 is greater than 100 µM.

**Q.** And the TGI [27]?
**A.** Its TGI is greater than 100 µM.

**Q.** What about the GI50 [28] of the same molecule?
**A.** The GI50 was greater than 100 µM.

**Q.** And the TGI [28]?
**A.** Its TGI is greater than 100 µM.

**Q.** What about the GI50 [29] of the same molecule?
**A.** Its GI50 is greater than 100 µM.

**Q.** What about the TGI [29] of the same molecule?
**A.** Its TGI is greater than 100 µM.

**Q.** What about the GI50 [30] of the same molecule?
**A.** Its GI50 is greater than 100 µM.

**Q.** And the TGI [30]?
**A.** The TGI was greater than 100 µM.

**Q.** And the GI50 [31]?
**A.** Its GI50 is greater than 100 µM.

**Q.** And the TGI [31]?
**A.** The TGI was greater than 100 µM.

**Q.** And the GI50 [32]?
**A.** Its GI50 is greater than 100 µM.

**Q.** What about the TGI [32] of the same molecule?
**A.** Its TGI is greater than 100 µM.

**Q.** And the GI50 [33]?
**A.** The GI50 was greater than 100 µM.

**Q.** What about the TGI [33] of the same molecule?
**A.** The TGI was greater than 100 µM.

**Q.** What about the GI50 [34] of the same molecule?
**A.** The GI50 was 49.8 µM.

**Q.** What about the TGI [34] of the same molecule?
**A.** Its TGI is greater than 100 µM.

**Q.** And the GI50 [35]?
**A.** Its GI50 is greater than 100 µM.

**Q.** What about the TGI [35] of the same molecule?
**A.** Its TGI is greater than 100 µM.

**Q.** And the GI50 [36]?
**A.** The GI50 was greater than 100 µM.

**Q.** What about the TGI [36] of the same molecule?
**A.** The TGI was greater than 100 µM.

**Q.** And the GI50 [37]?
**A.** The GI50 was greater than 100 µM.

**Q.** What about the TGI [37] of the same molecule?
**A.** Its TGI is greater than 100 µM.

**Q.** What about the GI50 [38] of the same molecule?
**A.** Its GI50 is greater than 100 µM.

**Q.** What about the TGI [38] of the same molecule?
**A.** Its TGI is greater than 100 µM.

**Q.** What about the GI50 [39] of the same molecule?
**A.** The GI50 was greater than 100 µM.

**Q.** And the TGI [39]?
**A.** The TGI was greater than 100 µM.

**Q.** And the GI50 [40]?
**A.** The GI50 was greater than 100 µM.

**Q.** What about the TGI [40] of the same molecule?
**A.** Its TGI is greater than 100 µM.

**Q.** What about the GI50 [41] of the same molecule?
**A.** Its GI50 is greater than 100 µM.

**Q.** What about the TGI [41] of the same molecule?
**A.** Its TGI is greater than 100 µM.

**Q.** What about the GI50 [42] of the same molecule?
**A.** Its GI50 is greater than 100 µM.

**Q.** And the TGI [42]?
**A.** Its TGI is greater than 100 µM.

**Q.** What about the GI50 [43] of the same molecule?
**A.** The GI50 was greater than 100 µM.

**Q.** What about the TGI [43] of the same molecule?
**A.** The TGI was greater than 100 µM.

**Q.** What about the GI50 [44] of the same molecule?
**A.** The GI50 was greater than 100 µM.

**Q.** And the TGI [44]?
**A.** Its TGI is greater than 100 µM.

**Q.** What about the GI50 [45] of the same molecule?
**A.** The GI50 was 64 µM.

**Q.** And the TGI [45]?
**A.** The TGI was greater than 100 µM.

**Q.** What about the GI50 [46] of the same molecule?
**A.** Its GI50 is greater than 100 µM.

**Q.** And the TGI [46]?
**A.** Its TGI is greater than 100 µM.

**Q.** What about the GI50 [47] of the same molecule?
**A.** Its GI50 is greater than 100 µM.

**Q.** What about the TGI [47] of the same molecule?
**A.** Its TGI is greater than 100 µM.
